Measured values: USRE43327E1, “Hydrophobic polyamine analogs and methods for their use” (Aminex Therapeutics, Inc., priority 2001, dated 2012)
Read-outs that look alike come from different tables or passages of the source.

Experiments:
Assay type in all cases: cell-based
[1] = test system: 4 cell lines (A375, MDA-MB-231, PC-3, SK-OV-3); experiment: Growth inhibition with DFMO, average over 4 cell lines; conditions: with DFMO
Description: Cells were plated in 96-well plates such that they would be in log growth for the duration of the assay. The day after plating, PAs were added to the cells, and growth, if any, permitted to continue for six days in the presence of 1 mM AG and 0.5 μM SPD to insure that any growth inhibition was not the result of depletion of external polyamines in the media. At the end of the six days, cell growth was measured by MTS/PMS dye assay (Cell Titer 96 Aqueous Non-Radioactive Cell Proliferation Assay; Promega, Madison, Wis.).

PC-3 [2] = experiment: Growth inhibition assay, PA alone, PC-3; conditions: PA alone (no DFMO), six days, repeat determinations, read-out: Cell Line IC50 PC-3
Description: (§1) Medias were obtained from Mediatech, Inc. (Herdon, Va.) and serums from Gibco BRL (Gaithersburg, Md.). 50 U/ml penicillin, 50 μg/ml streptomycin and 2 mM L-glutamine (all from Bio Whittaker, Walkersville, Md.) were included in all cultures. […] When cells were cultured with polyamines or ORI compounds, 1 mM aminoguanidine (AG; Sigma) was included to inhibit serum amine oxidase activity.

A375 [3] = experiment: Growth inhibition assay (MTS/PMS) with DFMO, A375; conditions: in the presence of DFMO (1-5 mM), 1 mM AG, 0.5 μM SPD, six days; repeat determinations; read-out: Cell Line EC50 A375
Description: as §1

PC-3 [4] = experiment: Growth inhibition assay (MTS/PMS) with DFMO, PC-3; conditions: in the presence of DFMO (1-5 mM), 1 mM AG, 0.5 μM SPD, six days; repeat determinations; read-out: Cell Line EC50 PC-3
Description: as §1

A375 [5] = experiment: Growth inhibition assay, PA alone, A375; conditions: PA alone (no DFMO), six days, repeat determinations, read-out: Cell Line IC50 A375
Description: as §1

MDA-MB-231 [6] = experiment: Growth inhibition assay, PA alone, MDA-MB-231; conditions: PA alone (no DFMO), six days, repeat determinations, read-out: Cell Line IC50 MDA-MB-231
Description: as §1

SK-OV-3 [7] = experiment: Growth inhibition assay, PA alone, SK-OV-3; conditions: PA alone (no DFMO), six days, repeat determinations, read-out: Cell Line IC50 SK-OV-3
Description: as §1

MDA-MB-231 [8] = experiment: Growth inhibition assay (MTS/PMS) with DFMO, MDA-MB-231; conditions: in the presence of DFMO (1-5 mM), 1 mM AG, 0.5 μM SPD, six days; repeat determinations; read-out: Cell Line EC50 MDA-MB-231
Description: as §1

SK-OV-3 [9] = experiment: Growth inhibition assay (MTS/PMS) with DFMO, SK-OV-3; conditions: in the presence of DFMO (1-5 mM), 1 mM AG, 0.5 μM SPD, six days; repeat determinations; read-out: Cell Line EC50 SK-OV-3
Description: as §1

[10] = Table 3, average over cell lines, read-out: AVG. EC50
[11] = Homo sapiens, MDA-MB-231, 144 h
[12] = Table 1, average EC50 for 4 cell lines, read-out: Ave EC50 value
[13] = Table 2, average EC50 for 4 cell lines, read-out: Ave EC50 value

Row | Structure (SMILES) | EC50 [1, 10] | IC50 (PC-3 [2]; Homo sapiens, PC-3, 144 h) | IC50 (A375 [5]; Homo sapiens, A-375, 144 h) | IC50 (MDA-MB-231 [6]; [11]) | IC50 (SK-OV-3 [7]; Homo sapiens, SK-OV-3, 144 h) | other results
1 | CC(C)CC(C)NCCCCC(N)C(=O)NCCCNCCCCNCCCN (single isomer, unassigned) [VA21] | 1.3 µM | > 100 µM |  |  |  | 
2 | NCCCNCCCCNCCCNC(=O)[C@@H](N)CCCCNC(=O)c1ccccc1 [IA24] |  |  |  |  |  | EC50 (A375 [3]): 1560 nM; EC50 (PC-3 [4]): > 30000 nM; IC50 (A375 [5]): > 30 µM; IC50 (PC-3 [2]): > 30 µM
3 | CCCCCCCCCCCCCCCCCC(=O)NCCCC[C@@H](N)C(=O)NCCCNCCCCNCCCN [IB2] | 0.083 µM | > 3 µM | > 3 µM | > 3 µM | > 3 µM | 
4 | CCCCCCCC(=O)NCCCC[C@@H](N)C(=O)NCCCNCCCCNCCCN [IB7] | 11.2 µM | > 30 µM | > 30 µM | > 30 µM | > 30 µM | 
5 | CCCCCCC(=O)NCCCC[C@@H](N)C(=O)NCCCNCCCCNCCCN [IB8] | 3.55 µM | > 100 µM | > 100 µM | > 100 µM | > 100 µM | 
6 | CCCCCC(=O)NCCCC[C@@H](N)C(=O)NCCCNCCCCNCCCN [IB9] | 11.5 µM | > 100 µM | > 100 µM | > 100 µM | > 100 µM | 
7 | CCCC(=O)NCCC[C@@H](N)C(=O)NCCCNCCCCNCCCN [IB10] | 11.7 µM | > 100 µM | > 100 µM | > 100 µM | > 100 µM | EC50 [1, 12]: 12 µM
8 | NCCCNCCCCNCCCNC(=O)[C@H](N)CCCCNC(=O)c1ccccc1 [IB24] | > 30 µM | > 30 µM | > 30 µM | > 30 µM | > 30 µM | 
9 | NCCCNCCCCNCCCNC(=O)[C@H](N)CCCCNC(=O)c1ccco1 [IB25] |  | > 30 µM | > 30 µM |  | > 30 µM | 
10 | NCCCNCCCCNCCCNC(=O)[C@H](N)CCCCNC(=O)c1ccc(-c2ccccc2)cc1 [IB26] | 0.955 µM | > 100 µM |  | > 100 µM | > 100 µM | 
11 | NCCCNCCCCNCCCNC(=O)[C@H](N)CCCCNC(=O)C(c1ccccc1)c1ccccc1 [IB29] |  | > 100 µM |  | > 100 µM | > 70 µM | 
12 | NCCCNCCCCNCCCNC(=O)[C@H](N)CCCCNC(=O)C12CC3CC(CC(C3)C1)C2 [IB30] | 1.24 µM |  |  | > 100 µM |  | IC50 (MDA-MB-231 [6]): 84.4 µM
13 | NCCCNCCCCNCCCNC(=O)[C@H](N)CCCNC(=O)C1CCCCC1 [IB32] |  | > 100 µM | > 100 µM | > 100 µM | > 100 µM | EC50 [1, 12]: 3.6 µM
14 | CC(C)C(=O)NCCCC[C@@H](N)C(=O)NCCCNCCCCNCCCN [IB33] | 8.58 µM | > 100 µM | > 100 µM | > 100 µM | > 100 µM | 
15 | CC(C)(C)C(=O)NCCCC[C@@H](N)C(=O)NCCCNCCCCNCCCN [IB34] | 8.29 µM | > 100 µM | > 100 µM | > 100 µM | > 100 µM | 
16 | CC(C)(C)CC(=O)NCCCC[C@@H](N)C(=O)NCCCNCCCCNCCCN [IB36] | 26.9 µM | > 100 µM | > 100 µM | > 100 µM | > 100 µM | 
17 | NCCCNCCCCNCCCNC(=O)[C@H](N)CCCCNC(=O)CC1CC2CCC1C2 (stereo partly shown) [IB37] | 35.1 µM | > 100 µM | 19.8 µM | > 100 µM | 18.3 µM | 
18 | CC(C)[C@@H]1CC[C@@H](C)C[C@H]1OCC(=O)NCCCC[C@@H](N)C(=O)NCCCNCCCCNCCCN [IB38] | 13.4 µM | 28 µM | 21.3 µM | 63.9 µM | 60.1 µM | 
19 | NCCCNCCCCNCCCNC(=O)[C@H](N)CCCCNC(=O)C(F)(F)C(F)(F)C(F)(F)F [IB39] |  |  |  |  |  | EC50 (MDA-MB-231 [8]): 52500 nM; EC50 (PC-3 [4]): > 100000 nM; EC50 (SK-OV-3 [9]): > 100000 nM; IC50 (MDA-MB-231 [6]): 4.26 µM; IC50 (PC-3 [2]): > 100 µM; IC50 (SK-OV-3 [7]): > 100 µM
20 | CC(C)(C)OC(=O)NCCCC[C@@H](N)C(=O)NCCCNCCCCNCCCN [IB41] |  |  |  |  |  | EC50 (MDA-MB-231 [8]): 31900 nM; EC50 (PC-3 [4]): 6730 nM
21 | CCCCCCCCCCCCCCCC(=O)NCCCC[C@H](NC(=O)CCCCCCCCCCCCCCC)C(=O)NCCCNCCCCNCCCN [IE4] |  |  |  |  |  | EC50 (MDA-MB-231 [8]): 267 nM; EC50 (PC-3 [4]): 200 nM; EC50 (SK-OV-3 [9]): 132 nM; IC50 (MDA-MB-231 [6]): 17.9 µM; IC50 (PC-3 [2]): 21.5 µM; IC50 (SK-OV-3 [7]): 7.25 µM
22 | NCCCNCCCCNCCCNC(=O)[C@@H](N)CCCCNS(=O)(=O)c1ccc(CNC(=O)c2ccc(Cl)cc2)s1 [IIA21] |  |  |  |  |  | EC50 (MDA-MB-231 [8]): 1400 nM; EC50 (PC-3 [4]): 460 nM
23 | CCCCCCCCCCCCCCCCS(=O)(=O)NCCCC[C@H](NS(=O)(=O)CCCCCCCCCCCCCCCC)C(=O)NCCCNCCCCNCCCN [IIE10] |  |  |  |  |  | EC50 (MDA-MB-231 [8]): 392 nM; EC50 (PC-3 [4]): 152 nM; EC50 (SK-OV-3 [9]): 272 nM; IC50 (MDA-MB-231 [6]): 24.5 µM; IC50 (PC-3 [2]): 14.3 µM; IC50 (SK-OV-3 [7]): 20.1 µM
24 | NCCCNCCCCNCCCNC(=O)[C@H](CCCCNCc1ccccc1)NCc1ccccc1 [IVE30] |  |  |  |  |  | EC50 (MDA-MB-231 [8]): 4200 nM; EC50 (PC-3 [4]): 1700 nM
25 | CC(C)(C)CNCCCC[C@H](N)C(=O)NCCCNCCCCNCCCN [VA22] | 6.98 µM | > 100 µM | > 100 µM | > 100 µM | > 100 µM | EC50 [1, 13]: 2.42 µM; IC50 (A375 [5]): 83.5 µM
26 | CCCC(CCC)NCCCC[C@H](N)C(=O)NCCCNCCCCNCCCN [VA26] | 3.91 µM | > 100 µM | > 100 µM | > 100 µM | > 100 µM | 
27 | NCCCNCCCCNCCCNC(=O)[C@@H](N)CCCCNCC12CC3CC(CC(C3)C1)C2 [VA27] | 6.45 µM | > 100 µM | > 100 µM | > 100 µM | > 100 µM | EC50 [1, 13]: 26.8 µM
28 | CC(C)[C@@H]1CC[C@@H](C)CC1NCCCC[C@@H](N)C(=O)NCCCNCCCCNCCCN (stereo partly shown) [VB28] | 0.905 µM | > 100 µM | > 100 µM | > 100 µM | > 100 µM | IC50 (A375 [5]): 64.5 µM

Further lines, with some results ahead:

Row | EC50 [1, 10] | IC50 (PC-3 [2]; Homo sapiens, PC-3, 144 h) | IC50 (A375 [5]; Homo sapiens, A-375, 144 h) | IC50 (MDA-MB-231 [6]; [11]) | IC50 (SK-OV-3 [7]; Homo sapiens, SK-OV-3, 144 h) | Structure (SMILES) | other results
29 | 4.69 µM |  |  |  |  | NCCCNCCCCNCCCNC(=O)[C@@H](N)CCCCNCC1CCCCC1 [IVA27] | IC50 (A375 [5]): > 100 µM; IC50 (MDA-MB-231 [6]): > 100 µM; IC50 (PC-3 [2]): > 100 µM; IC50 (SK-OV-3 [7]): > 100 µM
30 | 2.2 µM | > 100 µM | > 100 µM | > 100 µM | > 100 µM | CCCCNCCCC[C@@H](N)C(=O)NCCCNCCCCNCCCN [IVB3] | 
31 | 0.868 µM | > 100 µM | > 100 µM | > 100 µM | > 100 µM | CCCCCCNCCCC[C@@H](N)C(=O)NCCCNCCCCNCCCN [IVB5] | 
32 | 0.365 µM | > 100 µM | > 100 µM | > 100 µM | > 100 µM | CCCCCCCNCCCC[C@@H](N)C(=O)NCCCNCCCCNCCCN [IVB6] | 
33 | 1.52 µM | > 100 µM | > 100 µM | > 100 µM | > 100 µM | CC(C)CCNCCCC[C@@H](N)C(=O)NCCCNCCCCNCCCN [IVB21] | IC50 (A375 [5]): 71 µM
34 | 1.33 µM | > 100 µM | > 100 µM | > 100 µM | > 100 µM | CC(C)(C)CCNCCCC[C@@H](N)C(=O)NCCCNCCCCNCCCN [IVB22] | 
35 | 1.79 µM | > 100 µM | > 100 µM | > 100 µM | > 100 µM | CC(C)CNCCCC[C@@H](N)C(=O)NCCCNCCCCNCCCN [IVB23] | 
36 | 3.14 µM |  | > 100 µM | > 100 µM | > 100 µM | CC(C)(C)CNCCCC[C@@H](N)C(=O)NCCCNCCCCNCCCN [IVB24] | IC50 (A375 [5]): 84.4 µM
37 | 0.939 µM | > 100 µM |  | > 100 µM |  | NCCCNCCCCNCCCNC(=O)[C@H](N)CCCCNCC1CC2C=CC1C2 (stereo partly shown) [IVB25] | IC50 (MDA-MB-231 [6]): 61 µM
38 | 0.414 µM | > 100 µM |  | > 100 µM |  | NCCCNCCCCNCCCNC(=O)[C@H](N)CCCCNCC1CCCCC1 [IVB27] | 
39 | 10.7 µM | 17.8 µM | 5.6 µM | 18.9 µM | 19.8 µM | CC(C)=CCC[C@H](C)CCNCCCC[C@@H](N)C(=O)NCCCNCCCCNCCCN [IVB28] | 
40 |  | > 100 µM |  | > 100 µM | 72.9 µM | NCCCNCCCCNCCCNC(=O)[C@H](N)CCCCNCc1ccc(-c2ccccc2)cc1 [IVB33] | 
